# Source: US7723538B2, “Sulfonamides as L-CPT1 inhibitors” (Hoffmann-La Roche Inc., priority 2005, dated 2010)
# Biological target: T1, L-CPT1 (Homo sapiens, UniProt P50416)
# T1 construct: made in house; host or cells: Pichia pastoris strain X-33 (pGAPZB/pGAPZA vector), crude cell-free extract
# T1 sequence (P50416 1-773): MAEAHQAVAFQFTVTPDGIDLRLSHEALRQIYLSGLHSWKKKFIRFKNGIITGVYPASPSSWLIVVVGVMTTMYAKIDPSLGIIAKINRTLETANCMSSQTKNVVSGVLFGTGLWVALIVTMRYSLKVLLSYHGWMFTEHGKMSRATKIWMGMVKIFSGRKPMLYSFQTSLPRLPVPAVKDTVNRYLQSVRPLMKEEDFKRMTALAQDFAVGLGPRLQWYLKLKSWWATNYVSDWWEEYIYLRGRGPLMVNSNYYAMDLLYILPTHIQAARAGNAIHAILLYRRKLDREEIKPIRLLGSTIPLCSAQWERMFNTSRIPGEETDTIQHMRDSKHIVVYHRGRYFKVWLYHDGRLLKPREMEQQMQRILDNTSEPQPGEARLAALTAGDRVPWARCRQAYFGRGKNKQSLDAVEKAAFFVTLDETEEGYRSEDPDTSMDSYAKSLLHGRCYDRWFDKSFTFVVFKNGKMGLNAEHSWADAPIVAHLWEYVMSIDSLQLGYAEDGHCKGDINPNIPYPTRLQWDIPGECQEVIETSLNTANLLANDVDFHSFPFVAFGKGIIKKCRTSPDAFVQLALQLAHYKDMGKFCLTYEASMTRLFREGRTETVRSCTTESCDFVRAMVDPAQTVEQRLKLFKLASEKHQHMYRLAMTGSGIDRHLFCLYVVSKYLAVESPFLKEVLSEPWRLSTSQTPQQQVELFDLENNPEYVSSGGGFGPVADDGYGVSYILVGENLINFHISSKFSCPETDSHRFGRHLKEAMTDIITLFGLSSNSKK
# Assay: CPT activity spectrophotometric assay with DTNB (Ellman's reagent), cell-free extracts of P. pastoris expressing CPT1
# Format: biochemical
# Details: carnitine 500 μM, palmitoyl-CoA 80 μM, DTNB 300 μM, absorbance at 410 nm, pH 7.4; read-out: L-CPT1 inhibition IC50
# Description: The following tests were carried out in order to determine the activity of the compounds of the present invention. Background information on the performed assays can be found in: Jackson et al., 1999, Biochem. J. 341, 483-489 and Jackson et al., 2000, J. Biol. Chem. 275, 19560-19566.
# Human liver and muscle CPT1 cDNAs and rat CPT2 cDNA were subcloned in pGAPZB or pGAPZA, respectively. These plasmids were used to transform P. pastoris strain X-33 via electroporation after the preparation of electrocompetent cells. High copy number clones were selected where necessary using 0.5 or 1 mg/ml Zeocin. Cultures for activity measurements were induced for 16 h in YPD medium (1% yeast extract, 2% peptone, 2% glucose). Crude cell extracts were prepared by disrupting the cells with glass beads or French Press, depending on fermenter sizes. After centrifugation, the cell-free extracts were resuspended in cell breaking buffer (50 mM Tris, pH 7.4, 100 mM KCl, 1 mM EDTA) in the presence of a protease inhibitor cocktail, before aliquoting and freezing at −20° C.
# CPT activity was measured using a spectrophotometric assay using 5,5′-dithio-bis-(2-nitrobenzoic acid) (DTNB) also called Ellman's reagent. The HS-CoA released on the formation of acylcarnitine from carnitine (500 μM) and palmitoyl-CoA (80 μM) reduced DTNB (300 μM) forming 5-mercapto-(2-nitrobenzoic acid) witch absorbed at 410 nm with a molar coefficient extinction of 13600 M^−1·cm^−1. The assay buffer contained 120 mM KCl, 25 mM Tris, pH 7.4, 1 mM EDTA. This assay was used for the identification of selective inhibitors of the liver CPT1 isoform versus the muscle CPT1 and CPT2 isoforms.
row,IC50 [nM],Compound
1,192,"O=C(O)c1ccc(NC(=O)c2cccc(NS(=O)(=O)c3ccc(Cl)c(Cl)c3)c2)cc1 [Example 5, 4-[3-(3,4-Dichloro-benzenesulfonylamino)-benzoylamino]-benzoic acid]"
2,153,"O=C(O)c1ccc(NC(=O)c2ccc(Cl)c(NS(=O)(=O)c3cccc(Cl)c3)c2)cc1 [Example 21, 4-[4-Chloro-3-(3-chloro-benzenesulfonylamino)-benzoylamino]-benzoic acid]"
3,881,"COc1cc(C(=O)Nc2ccc(C(=O)O)cc2)cc(NS(=O)(=O)c2cc(Cl)cc(Cl)c2)c1OC [Example 32, 4-[3-(3,5-Dichloro-benzenesulfonylamino)-4,5-dimethoxy-benzoylamino]-benzoic acid]"
